{"source": "patent US12509446B2", "about": "“FYN and VEGFR2 kinase inhibitors” (ROTTAPHARM BIOTECH S.R.L., priority 2019, dated 2025)", "key": {"MMP3": {"system": "MMP3", "assay": "Gene expression in rat articular chondrocytes under IL-1β stimulation, MMP3", "assay_type": "cell-based", "set-up": "key to MMP3 gene expression, no effect: ne: no effect", "procedure": "(§1) For gene expression analysis, 10 days after plating, the medium was changed and substituted with DMEM GlutaMAX I 0.4% to synchronize the cells. The cells were then co-treated in DMEM GlutaMAX I 0.4% with different concentrations of the test compounds and […] at a final concentration of 2 ng/ml for 6 h and 24 h. The test compound concentrations used have been chosen on the basis of the toxicity data.\n(§2) At the end of the incubation, the supernatant was discarded, the cell were washed with cold PBS1X and scraped with 200 μl of RNA lysis buffer 1X (Nucleic Acid Purification Lysis Solution, Applied Biosystems).\n(§3) Total RNA was purified using ABI Prism™ 6100 Nucleic Acid PrepStation (Applied Biosystems) following manufacturer's instructions.\n(§4) Total RNA was retrotranscribed using the High-Capacity cDNA Archive Kit (Applied Biosystems-Thermo Fisher Scientific) following manufacturer's instructions.\n(§5) The specific probes and primers for RealTime PCR were from Applied Biosystems (Thermo Fisher Scientific) as Assays-on-Demand™, while the probe and primers for the endogenous control 18S was a PDAR (Pre-Developed TaqMan® Assay Reagents—Applied Biosystems-Thermo Fisher Scientific).\n(§6) The assays were designed to amplify target cDNA without amplifying genomic DNA.\n(§7) Gene expression analysis for IL-1β, IL-6 and ADAMTS-5 were performed at 6 h incubation, while the gene expression analysis for MMP3, MMP13 and COX2 were performed at 24 h incubation.\n(§8) For each compound the maximal concentration tested was dependent on the toxicity results obtained on primary rat chondrocytes.\n(§9) The data analysis, with the normalisation on the amplified values for the 18S was done following the specific instruction of Applied Biosystems for the relative quantification of gene expression."}, "[1]": {"system": "bovine nasal septum cartilage", "assay": "Inhibition of cartilage degradation (GAG release) induced by IL-1α in a bovine in vitro model", "assay_type": "cell-based", "set-up": "key to Bovine cartilage degradation induced by IL-1α, no effect: ne: no effect", "procedure": "Nasal septum cartilage was collected from an eight months-old male bovine in a local slaughterhouse.\nTissue was sprayed with ethanol 70% and immediately put in sterile PBS with Antibiotic-Antimycotic stabilized solution (PBS-AASS). It was cut in order to obtain small punches (diameter 2 mm, 1 mm-thick). washed with sterile PBS-AASS, the slices were transferred in a 96X well plate (one piece per well) in DMEM 10%+AASS. 48 h later the cartilage was stimulated in white DMEM+0.1% BSA+AASS with IL-1α […] in the absence or presence of the studied compounds.\nThe compounds concentration used in this analysis was chosen depending on the toxicity results obtained in rat primary chondrocytes at 48 h of incubation.\nAfter 48 h stimulation, the culture medium was collected and stored at −80° C. The cartilage punches were digested with papain at 65° C. for 2 h in phosphate buffer (0.05M pH 6.5 with 2 mM N-acetil-L-cisteine and 2 mM EDTA).\nThe glycosaminoglycan (GAG) determination was done by a colorimetric assay with 1,9 dimethyl methylene blue (DMB).\nDigested cartilage samples were diluted in PBS-BSA 1%. To 100 μl of diluted samples or standard we added 100 μl DMB 2X. After 5-20 min incubation the samples were read at 590 nm (Titertek Multiscan Plus).\nThe cartilage degradation induced by IL-1α was expressed as: GAG (medium)/total GAG (medium+cartilage)×100"}, "IL-1β": {"system": "IL-1β", "assay": "Gene expression in rat articular chondrocytes under IL-1β stimulation, IL-1β", "assay_type": "cell-based", "details": "for IL-1β gene expression, percentage of inhibitory effect at the highest non toxic concentration: 6 h", "procedure": "as §1, §2, §3, §4, §5, §6, §7, §8, §9"}, "MMP13": {"system": "MMP13", "assay": "Gene expression in rat articular chondrocytes under IL-1β stimulation, MMP13", "assay_type": "cell-based", "set-up": "key to MMP13 gene expression, no effect: ne: no effect", "procedure": "as §1, §2, §3, §4, §5, §6, §7, §8, §9"}, "IL-6": {"system": "IL-6", "assay": "Gene expression in rat articular chondrocytes under IL-1β stimulation, IL-6", "assay_type": "cell-based", "details": "for IL-6 gene expression, percentage of inhibitory effect at the highest non toxic concentration: 3 μM, 6 h", "procedure": "as §1, §2, §3, §4, §5, §6, §7, §8, §9"}, "NF-kB": {"system": "NF-kB", "assay": "Gene reporter (GR) assay, NF-kB activation after TNFα in JB6 Cl 41-5a (P+) cells", "assay_type": "cell-based, murine", "details": "Mus musculus, JB6 Cl 41-5a, TNFα 2 ng/ml, non toxic concentrations; read-out: Gene reporter (GR) inhibition IC50", "description": "To determine if the compounds of the invention were active also in a cellular model, a gene reporter assay was established in a cell line (JB6 Cl 41-5a (P+)) know to activate Fyn kinase via an inflammatory stimuli (TNFα). GR assay measures the activation of the nuclear transcription factor NF-kB, situated down-stream the Fyn activation pathway. Products active in this analysis has to penetrate in the cell and inhibit the activation pathway of NF-kB.\nThe murine epithelial cell line JB6 Cl 41-5a (P+) (ATCC® Cat. #CRL-2010) was stably transfected with the pGL4.32[luc2P/NFkB-RE/Hygro] vector (Promega). Clonal selection was achieved by limiting with 80 μg/ml Hygromycin B. The clones were tested for their response to TNFα stimulus.\nJB6(P+) NFkB-RE-luc2P transfected cells were used for the analysis of NF-kB activity modulation, after TNFα stimulation, by Fyn-inhibitors.\nCells were pre-treated with the different compounds for 1 h and then stimulated with 2 ng/ml TNFα for 4 h. Each tested condition was analyzed in quadruplicate.\nThe luciferase analysis was performed with ONE-Glo™+ToxLuciferase Reporter and Cell Viability Assay kit (Promega)."}, "[2]": {"system": "rat primary articular chondrocytes", "assay": "Toxicity analysis (MTT) in rat primary chondrocytes", "details": "for First toxic concentration at 24 h: rat primary chondrocytes"}, "VEGFR2": {"biological_target": "VEGFR2 (Homo sapiens (Human), UniProt P35968)", "sequence (P35968 20-1356)": "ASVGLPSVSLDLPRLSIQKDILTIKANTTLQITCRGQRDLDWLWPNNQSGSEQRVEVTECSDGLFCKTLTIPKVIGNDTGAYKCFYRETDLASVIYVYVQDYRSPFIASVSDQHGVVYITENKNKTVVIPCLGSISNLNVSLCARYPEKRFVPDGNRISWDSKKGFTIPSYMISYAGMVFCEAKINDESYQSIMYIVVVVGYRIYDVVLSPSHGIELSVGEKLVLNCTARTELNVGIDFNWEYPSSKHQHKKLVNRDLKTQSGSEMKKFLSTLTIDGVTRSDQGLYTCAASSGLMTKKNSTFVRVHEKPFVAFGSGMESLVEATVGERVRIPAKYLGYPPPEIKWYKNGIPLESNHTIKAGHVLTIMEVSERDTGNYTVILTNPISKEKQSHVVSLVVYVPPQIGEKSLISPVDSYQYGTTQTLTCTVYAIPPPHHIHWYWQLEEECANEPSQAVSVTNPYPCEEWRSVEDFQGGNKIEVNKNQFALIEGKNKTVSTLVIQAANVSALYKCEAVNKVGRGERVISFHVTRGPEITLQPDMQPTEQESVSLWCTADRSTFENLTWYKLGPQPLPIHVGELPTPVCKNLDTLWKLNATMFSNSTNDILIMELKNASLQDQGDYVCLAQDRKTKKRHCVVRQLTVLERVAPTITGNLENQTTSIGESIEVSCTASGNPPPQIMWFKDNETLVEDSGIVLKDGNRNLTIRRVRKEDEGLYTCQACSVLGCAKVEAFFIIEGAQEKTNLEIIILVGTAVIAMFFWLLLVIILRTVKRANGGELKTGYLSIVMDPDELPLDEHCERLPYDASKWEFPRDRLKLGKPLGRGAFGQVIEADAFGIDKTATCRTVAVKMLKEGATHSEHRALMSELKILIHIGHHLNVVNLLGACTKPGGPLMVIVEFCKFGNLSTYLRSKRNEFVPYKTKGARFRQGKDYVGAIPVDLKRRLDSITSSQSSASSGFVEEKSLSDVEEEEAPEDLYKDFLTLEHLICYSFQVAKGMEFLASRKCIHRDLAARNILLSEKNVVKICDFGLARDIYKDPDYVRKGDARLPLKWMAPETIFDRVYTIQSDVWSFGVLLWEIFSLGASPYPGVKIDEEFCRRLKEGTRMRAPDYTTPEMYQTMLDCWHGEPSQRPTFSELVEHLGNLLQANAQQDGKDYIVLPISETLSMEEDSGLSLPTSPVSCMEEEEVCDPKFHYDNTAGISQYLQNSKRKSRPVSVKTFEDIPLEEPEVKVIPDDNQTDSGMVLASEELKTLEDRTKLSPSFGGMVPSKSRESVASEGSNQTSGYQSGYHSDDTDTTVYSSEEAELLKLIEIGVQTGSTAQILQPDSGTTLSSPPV", "assay": "In vitro VEGFR2 kinase activity assay (Eurofins Cerep)", "assay_type": "biochemical", "details": "read-out: VEGFR2 KINASE INHIBITION IC50", "procedure": "The VEGFR2 kinase inhibitory activity of representative examples of compounds of Formula (I) assays was evaluated in Eurofins Cerep (France). The concentration range of the inhibitors under investigation was from 10^−8 M up to 10^−5 M final concentration. Some compounds were re-tested in a concentration-range starting from 10^−9 M. The results are expressed as a percent of control activity (in the absence of test compound) and the IC50 values were determined by non-linear regression analysis of the inhibition/concentration curves generated with mean replicate values."}, "Fyn": {"biological_target": "Fyn (Homo sapiens (Human), UniProt P06241)", "sequence (P06241 whole entry)": "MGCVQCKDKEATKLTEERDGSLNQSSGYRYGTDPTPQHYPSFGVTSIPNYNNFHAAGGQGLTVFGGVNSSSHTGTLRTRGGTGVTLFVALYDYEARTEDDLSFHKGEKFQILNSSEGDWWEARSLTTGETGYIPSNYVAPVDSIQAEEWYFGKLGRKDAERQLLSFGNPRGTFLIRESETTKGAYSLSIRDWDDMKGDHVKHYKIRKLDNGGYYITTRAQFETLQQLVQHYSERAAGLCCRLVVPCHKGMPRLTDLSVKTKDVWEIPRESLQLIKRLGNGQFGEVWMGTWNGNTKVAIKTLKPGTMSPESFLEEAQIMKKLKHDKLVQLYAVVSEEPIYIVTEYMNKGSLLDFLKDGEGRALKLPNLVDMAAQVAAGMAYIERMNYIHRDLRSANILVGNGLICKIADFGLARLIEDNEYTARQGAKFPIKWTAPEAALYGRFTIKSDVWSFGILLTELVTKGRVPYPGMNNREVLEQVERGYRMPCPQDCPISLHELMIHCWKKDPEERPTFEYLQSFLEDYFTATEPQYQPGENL", "assay": "Z′-LYTE in vitro Fyn kinase activity assay", "assay_type": "biochemical", "details": "ATP 50 μM; read-out: FYN KINASE INHIBITION IC50", "procedure": "The Fyn kinase inhibitory activity of representative examples of compounds of Formula (1) was evaluated by Z′-LYTE™ Kinase Assay Platform (Invitrogen). Compounds were evaluated towards active Fyn (full length active, molecular weight 87.1 kDa; Invitrogen). […] Samples representing the 0% inhibition (or total enzymatic activity) were in the presence of compound diluent (1% DMSO final in Reaction Buffer 50 mMHepes, 10 mM MgCl2, 1 mM EGTA, 0.01% Brij-35, pH 7.5). The kinase reaction was carried out in a total volume of 10 μl, for 60 minutes at 25° C. The 0% Phosphorylation (i.e. no ATP) and 100% Phosphorylation Assay Controls, included in each plate, allowed to calculate the percent phosphorylation achieved in the specific reaction well. Results are expressed as percentage of inhibition and the IC50 values were calculated by non-linear curve fitting using GraphPad™ Prism software (version 6 for Windows)."}, "ADAMTS-5": {"system": "ADAMTS-5", "assay": "Gene expression in rat articular chondrocytes under IL-1β stimulation, ADAMTS-5", "assay_type": "cell-based", "details": "for ADAMTS-5 gene expression, percentage of inhibitory effect at the highest non toxic concentration: 6 h", "procedure": "as §1, §2, §3, §4, §5, §6, §7, §8, §9"}, "COX2": {"system": "COX2", "assay": "Gene expression in rat articular chondrocytes under IL-1β stimulation, COX2", "assay_type": "cell-based", "set-up": "key to COX2 gene expression, no effect: ne: no effect"}, "[3]": {"details": "Rattus norvegicus, Chondrocyte, 24 h incubation"}, "[4]": {"details": "Rattus norvegicus, Chondrocyte, 6 h incubation"}}}
{"smiles": "Cc1ccc(NC(=O)c2cccc(C(F)(F)F)c2)cc1CCc1cc(NC(=O)c2ccc(F)cc2)[nH]n1", "note": "[Compound 19, N-(3-(2-(3-(4-fluorobenzamido)-1H-pyrazol-5-yl)ethyl)-4-methylphenyl)-3-(trifluoromethyl)benzamide]", "values": [{"measurement": "IC50", "setting": "MMP3; [3]", "value": 600, "unit": "nM"}, {"measurement": "inhibition at 3 µM", "setting": "[1]; Bos taurus, 3 μM, read-out: Bovine cartilage degradation induced by IL-1α, % inhibitory effect at max concentration", "value": 83, "unit": "%"}, {"measurement": "IC50", "setting": "IL-1β; [4]", "value": 100, "unit": "nM"}, {"measurement": "IC50", "setting": "MMP13; [3]", "value": 500, "unit": "nM"}, {"measurement": "IL-6 gene expression, percentage of inhibitory effect at the highest non toxic concentration", "setting": "IL-6", "value": 3, "unit": "μM 99%"}, {"measurement": "IC50", "setting": "NF-kB", "value": 883, "unit": "nM"}, {"measurement": "First toxic concentration at 48 h in rat primary chondrocytes", "setting": "[2]", "value": 10, "unit": "µM"}, {"measurement": "First toxic concentration at 24 h", "setting": "[2]", "value": 10, "unit": "µM"}, {"measurement": "IC50", "setting": "VEGFR2", "value": 110, "unit": "nM"}, {"measurement": "IC50", "setting": "Fyn", "value": 69, "unit": "nM"}, {"measurement": "IC50", "setting": "ADAMTS-5; [4]", "value": 100, "unit": "nM"}, {"measurement": "IC50", "setting": "COX2; [3]", "value": 400, "unit": "nM"}]}
{"smiles": "Cc1nc(C(=O)Nc2ccc(C)c(CCc3cc(Nc4cnccn4)[nH]n3)c2)c(C(F)(F)F)o1", "note": "[Compound 6, 2-methyl-N-(4-methyl-3-(2-(5-(pyrazin-2-ylamino)-1H-pyrazol-3-yl)ethyl)phenyl)-5-(trifluoromethyl)oxazole-4-carboxamide]", "values": [{"measurement": "MMP3 gene expression, no effect", "setting": "MMP3; 24 h", "value": "ne"}, {"measurement": "Bovine cartilage degradation induced by IL-1α, no effect", "setting": "[1]", "value": "ne"}, {"measurement": "IL-1β gene expression, percentage of inhibitory effect at the highest non toxic concentration", "setting": "IL-1β; 1 μM", "value": 1, "unit": "μM 50%"}, {"measurement": "MMP13 gene expression, no effect", "setting": "MMP13; 24 h", "value": "ne"}, {"measurement": "IC50", "setting": "IL-6; [4]", "value": 640, "unit": "nM"}, {"measurement": "IC50", "setting": "NF-kB", "value": 2670, "unit": "nM"}, {"measurement": "First toxic concentration at 48 h in rat primary chondrocytes", "setting": "[2]", "value": 3, "unit": "µM"}, {"measurement": "First toxic concentration at 24 h", "setting": "[2]", "value": 3, "unit": "µM"}, {"measurement": "IC50", "setting": "VEGFR2", "value": "< 10", "unit": "nM"}, {"measurement": "IC50", "setting": "Fyn", "value": 112, "unit": "nM"}, {"measurement": "ADAMTS-5 gene expression, percentage of inhibitory effect at the highest non toxic concentration", "setting": "ADAMTS-5; 1 μM", "value": 1, "unit": "μM 28%"}, {"measurement": "COX2 gene expression, no effect", "setting": "COX2; 24 h", "value": "ne"}]}
{"smiles": "Cc1nccnc1Nc1cc(CCc2cc(NC(=O)c3cccc(C(F)(F)F)c3)ccc2F)n[nH]1", "note": "[Compound 15, N-(4-fluoro-3-(2-(5-((3-methylpyrazin-2-yl)amino)-1H-pyrazol-3-yl)ethyl)phenyl)-3-(trifluoromethyl)benzamide]", "values": [{"measurement": "MMP3 gene expression, percentage of inhibitory effect at the highest non toxic concentration", "setting": "MMP3; 3 μM, 24 h", "value": 3, "unit": "μM 90%"}, {"measurement": "inhibition at 1 µM", "setting": "[1]; Bos taurus, 1 μM, read-out: Bovine cartilage degradation induced by IL-1α, % inhibitory effect at max concentration", "value": 96, "unit": "%"}, {"measurement": "Inhibitory effect on the GAG release", "setting": "[1]; at max concentration", "value": "95-100%"}, {"measurement": "IL-1β gene expression, percentage of inhibitory effect at the highest non toxic concentration", "setting": "IL-1β; 3 μM", "value": 3, "unit": "μM 98%"}, {"measurement": "MMP13 gene expression, percentage of inhibitory effect at the highest non toxic concentration", "setting": "MMP13; 3 μM, 24 h", "value": 3, "unit": "μM 99%"}, {"measurement": "IL-6 gene expression, percentage of inhibitory effect at the highest non toxic concentration", "setting": "IL-6", "value": 3, "unit": "μM 100%"}, {"measurement": "First toxic concentration at 48 h in rat primary chondrocytes", "setting": "[2]", "value": 3, "unit": "µM"}, {"measurement": "First toxic concentration at 24 h", "setting": "[2]", "value": 10, "unit": "µM"}, {"measurement": "IC50", "setting": "VEGFR2", "value": "< 10", "unit": "nM"}, {"measurement": "IC50", "setting": "Fyn", "value": 18, "unit": "nM"}, {"measurement": "ADAMTS-5 gene expression, percentage of inhibitory effect at the highest non toxic concentration", "setting": "ADAMTS-5; 3 μM", "value": 3, "unit": "μM 96%"}, {"measurement": "COX2 gene expression, percentage of inhibitory effect at the highest non toxic concentration", "setting": "COX2; 3 μM, 24 h", "value": 3, "unit": "μM 97%"}]}
